Source: US11096985B2, “Antimicrobial peptides, their variants and uses” (priority 2015, dated 2021)
Where a SMILES comes first, the peptide text is derived from it. [ ]: non-standard residue; d: D form.

What was measured:
[1] = tested on: clinical strains of Escherichia coli; experiment: MIC, clinical strains of E. coli; assay type: cell-based; set-up: unit: μg/ml; settings: microdilution, Muller Hinton broth-cation adjusted, 0.02% BSA, 0.2% acetic acid
Experimental: (§1) Minimum inhibition concentrations (MICs) were determined against Escherichia coli (ATCC 25922), Staphylococcus aureus (ATCC 25923), Klebsiella pneumoniae (ATCC 10031) and Pseudomonas aeruginosa (ATCC 27853). Also clinical strains of E. coli, K. pneumoniae, E. cloacae, P. aeruginosa, Serratia marcescens, Proteus mirabilis, S. pneumoniae, Acinetobacter baumannii, A. johnsonii and S. aureus were used for MICs assays. Additionally, clinical strains of yeast including Candida albicans, C. glabrata, C. parapsilosis and C. quillermondiae were used. The susceptibility of these microorganisms to Chain peptides were determined using micro broth dilution assay. Colonies of the respective microorganism from Muller Hinton (MH) agar plates incubated overnight were suspended in MH broth media and final concentration of microorganism was adjusted to 5.0×10^5 cfu/ml. An aliquot of 10 μl of each Chain peptide, or gentamicin, tetracycline as reference antibiotics were added in differing concentrations along with 90 μl of bacterial suspension to 96 well polypropylene plates and incubated at 37° C. for 20 to 24 hours. Concentrations of Chain peptides and reference antibiotics ranged from 0.125 to 128 μg/ml and the MICs were recorded as the lowest concentration with no visual growth of bacteria. Similarly, antifungal MICs were tested in Potato dextrose broth.
(§2) Clinical strains of yeasts including Candida albicans, C. glabrata, C. parapsilosis and C. quillermondiae were also tested with the 12 Chain peptides. The minimum inhibitory concentration (MICs) varied between these peptides and are presented in Tables 4a, 4b, 4c and 5a, 5b, 5c. Peptides Chain 105, 201 and 308 are broad spectrum antimicrobials with MICs between 0.5-32 μg/ml against all the bacteria and yeasts tested, except Serratia marcescens and Proteus mirabilis, against which the MICs were between 64-128 μg/ml. Peptide Chain 306 has narrow spectrum activity against E.coli at 1 μg/ml and for the rest of the bacterial strains at >32 μg/ml (FIG. 10).

[2] = tested on: clinical strains of Klebsiella pneumoniae; experiment: MIC, clinical strains of K. pneumoniae; assay type: cell-based; set-up: unit: μg/ml; settings: microdilution, Muller Hinton broth-cation adjusted, 0.02% BSA, 0.2% acetic acid
Experimental: as §1, §2

[3] = tested on: clinical strains of Pseudomonas aeruginosa; experiment: MIC, clinical strains of P. aeruginosa; assay type: cell-based; set-up: unit: μg/ml; settings: microdilution, Muller Hinton broth-cation adjusted, 0.02% BSA, 0.2% acetic acid
Experimental: as §1, §2

[4] = tested on: clinical strains of Serratia marcescens; experiment: MIC, clinical strains of Serratia marcescens; assay type: cell-based; set-up: unit: µg/mL; settings: microdilution, Muller Hinton broth-cation adjusted, 0.02% BSA, 0.2% acetic acid
Experimental: as §1, §2

[5] = tested on: clinical strains of Proteus mirabilis; experiment: MIC, clinical strains of Proteus mirabilis; assay type: cell-based; set-up: unit: µg/mL; settings: microdilution, Muller Hinton broth-cation adjusted, 0.02% BSA, 0.2% acetic acid
Experimental: as §1, §2

[6] = tested on: clinical strains of Enterobacter cloacae; experiment: MIC, clinical strains of Enterobacter cloacae; assay type: cell-based; set-up: unit: μg/ml; settings: microdilution, Muller Hinton broth-cation adjusted, 0.02% BSA, 0.2% acetic acid
Experimental: as §1, §2

[7] = tested on: clinical strains of Staphylococcus aureus; experiment: MIC, clinical strains of S. aureus; assay type: cell-based; set-up: unit: μg/ml; settings: microdilution, Muller Hinton broth-cation adjusted, 0.02% BSA, 0.2% acetic acid
Experimental: as §1, §2

[8] = tested on: clinical strains of Streptococcus pneumoniae; experiment: MIC, clinical strains of Streptococcus pneumoniae; assay type: cell-based; set-up: unit: µg/mL; settings: microdilution, Muller Hinton broth-cation adjusted, 0.02% BSA, 0.2% acetic acid
Experimental: as §1, §2

[9] = tested on: clinical strains of Candida albicans; experiment: MIC, clinical yeast strains, Candida albicans; assay type: cell-based; set-up: unit: μg/ml
Method in brief: (§3)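 Broth microdilution in Mueller Hinton broth, inoculum adjusted to 5.0×10^5 cfu/ml, peptide tested at 0.125 to 128 μg/ml and incubated at 37° C. for 20 to 24 hours. MIC was the lowest concentration with no visible growth. Yeasts were tested in potato dextrose broth.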

[10] = tested on: clinical strains of C. glabrata; experiment: MIC, clinical yeast strains, C. glabrata; assay type: cell-based, Candida glabrata; set-up: unit: μg/ml
Method in brief: as §3

[11] = tested on: clinical strains of C. parapsilosis; experiment: MIC, clinical yeast strains, C. parapsilosis; assay type: cell-based, Candida parapsilosis; set-up: unit: μg/ml
Method in brief: as §3

[12] = tested on: clinical strains of C. quillermondiae; experiment: MIC, clinical yeast strains, C. quillermondiae; assay type: cell-based; settings: C. quillermondiae clinical yeast strain 1
Method in brief: as §3

CC(C)C[C@@H](NC(=O)[C@@H](CCCCN)NC(=O)[C@@H](CCCCN)NC(=O)[C@@H](Cc1ccccc1)NC(=O)[C@@H](CC(C)C)NC(=O)[C@@H](Cc1c[nH]c2ccccc12)NC(=O)[C@@H](CCCNC(=N)N)NC(=O)[C@@H](Cc1c[nH]c2ccccc12)NC(=O)[C@@H](CCCCN)NC(=O)[C@@H](CCCNC(=N)N)NC(=O)[C@H](N)CCCCN)C(=O)O [Chain310D] (H-[dK][dR][dK][dW][dR][dW][dL][dF][dK][dK][dL]-OH)
Minimum inhibitory concentration ([1]; Escherichia coli clinical strain 1): 4
Minimum inhibitory concentration ([1]; Escherichia coli clinical strain 2): 32
Minimum inhibitory concentration ([1]; Escherichia coli clinical strain 3): 16
Minimum inhibitory concentration ([1]; Escherichia coli clinical strain 4): 16
Minimum inhibitory concentration ([1]; Escherichia coli clinical strain 5): 16
Minimum inhibitory concentration ([2]; Klebsiella pneumoniae clinical strain 1): 64
Minimum inhibitory concentration ([2]; Klebsiella pneumoniae clinical strain 2): 64
Minimum inhibitory concentration ([2]; Klebsiella pneumoniae clinical strain 3): 128
Minimum inhibitory concentration ([2]; Klebsiella pneumoniae clinical strain 4): 64
Minimum inhibitory concentration ([2]; Klebsiella pneumoniae clinical strain 5): 32
Minimum inhibitory concentration ([3]; Pseudomonas aeruginosa clinical strain 1): 8
Minimum inhibitory concentration ([3]; Pseudomonas aeruginosa clinical strain 2): 16
Minimum inhibitory concentration ([3]; Pseudomonas aeruginosa clinical strain 3): 16
Minimum inhibitory concentration ([3]; Pseudomonas aeruginosa clinical strain 4): 8
Minimum inhibitory concentration ([3]; Pseudomonas aeruginosa clinical strain 5): 4
Minimum inhibitory concentration ([4]; Serratia marcescens clinical strain 1): >128
Minimum inhibitory concentration ([4]; Serratia marcescens clinical strain 2): >128
Minimum inhibitory concentration ([4]; Serratia marcescens clinical strain 3): >128
Minimum inhibitory concentration ([4]; Serratia marcescens clinical strain 4): >128
Minimum inhibitory concentration ([4]; Serratia marcescens clinical strain 5): >128
Minimum inhibitory concentration ([5]; Proteus mirabilis clinical strain 1): >128
Minimum inhibitory concentration ([5]; Proteus mirabilis clinical strain 2): >128
Minimum inhibitory concentration ([5]; Proteus mirabilis clinical strain 3): >128
Minimum inhibitory concentration ([5]; Proteus mirabilis clinical strain 4): >128
Minimum inhibitory concentration ([5]; Proteus mirabilis clinical strain 5): >128
Minimum inhibitory concentration ([6]; Enterobacter cloacae clinical strain 1): 128
Minimum inhibitory concentration ([6]; Enterobacter cloacae clinical strain 2): 64
Minimum inhibitory concentration ([6]; Enterobacter cloacae clinical strain 3): 16
Minimum inhibitory concentration ([6]; Enterobacter cloacae clinical strain 4): 8
Minimum inhibitory concentration ([6]; Enterobacter cloacae clinical strain 5): 16
Minimum inhibitory concentration ([7]; Staphylococcus aureus clinical strain 1): 8
Minimum inhibitory concentration ([7]; Staphylococcus aureus clinical strain 2): 16
Minimum inhibitory concentration ([7]; Staphylococcus aureus clinical strain 3): 8
Minimum inhibitory concentration ([7]; Staphylococcus aureus clinical strain 4): 8
Minimum inhibitory concentration ([7]; Staphylococcus aureus clinical strain 5): 4
Minimum inhibitory concentration ([8]; Streptococcus pneumoniae clinical strain 1): 128
Minimum inhibitory concentration ([8]; Streptococcus pneumoniae clinical strain 2): 128
Minimum inhibitory concentration ([8]; Streptococcus pneumoniae clinical strain 3): 128
Minimum inhibitory concentration ([8]; Streptococcus pneumoniae clinical strain 4): 128
Minimum inhibitory concentration ([8]; Streptococcus pneumoniae clinical strain 5): 64
Minimum inhibitory concentration ([9]; Candida albicans clinical yeast strain 1): 16
Minimum inhibitory concentration ([9]; Candida albicans clinical yeast strain 2): 16
Minimum inhibitory concentration ([9]; Candida albicans clinical yeast strain 3): 16
Minimum inhibitory concentration ([9]; Candida albicans clinical yeast strain 4): 16
Minimum inhibitory concentration ([9]; Candida albicans clinical yeast strain 5): 16
Minimum inhibitory concentration ([10]; C. glabrata clinical yeast strain 1): 16
Minimum inhibitory concentration ([10]; C. glabrata clinical yeast strain 2): 16
Minimum inhibitory concentration ([10]; C. glabrata clinical yeast strain 3): 128
Minimum inhibitory concentration ([10]; C. glabrata clinical yeast strain 4): 128
Minimum inhibitory concentration ([11]; C. parapsilosis clinical yeast strain 1): 64
Minimum inhibitory concentration ([11]; C. parapsilosis clinical yeast strain 2): 64
Minimum inhibitory concentration ([11]; C. parapsilosis clinical yeast strain 3): 64
Minimum inhibitory concentration ([11]; C. parapsilosis clinical yeast strain 4): 16
Minimum inhibitory concentration [12]: 8
